# Measurements: patent publication US5360803A, “Composition and method for treating cancer” (Dan Farber Cancer Institute, priority 1992, dated 1994)
# Like-named read-outs stand apart in the source and are kept apart here.
# Assays:
# CX-1 cells = assay: selective killing assay, colony number reduced to 50% of control, human colon carcinoma cell line CX-1; type: cell-based; details: for Selectivity (ratio of IC50 for CV-1 and IC50 for CX-1): CV-1/CX-1; for IC50: Homo sapiens, CX-1, Table III;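 for all read-outs here: colonies stained with crystal violet and counted, control cells given medium alone, exposure at 37 °C, normal monkey kidney epithelial CV-1 cells as the non-cancer comparator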
# Procedure: Human colon carcinoma cell line CX-1 or normal monkey kidney epithelial cell line CV-1 was chosen as representatives of cancer cells and normal cells, respectively. […] CX-1 cells (2,000 cells/well) and CV-1 cells (1,000 cells/well) were plated in 24-well plastic culture plates. […] The control received culture media only. Cells were treated with compounds of General Formulas (I) to (V) at 37° C. for 24 hours. After rinsing with fresh culture medium three times, the cells were further incubated at 37° C. for 7 to 10 days. Cell colonies were fixed and stained with 2% crystal violet in 70% ethanol for 10 minutes and rinsed in water. […] The selectivity is defined as the ratio of IC50 for CV-1 and IC50 for CX-1.
# CV-1 cells = assay: selective killing assay, colony number reduced to 50% of control, normal monkey kidney epithelial cell line CV-1; type: cell-based; details: 24 hours treatment; for IC50: Primates
# Text: (§1) The control received culture media only.
# human melanoma LOX = assay: survival of nude mice implanted with human melanoma LOX; type: in vivo, male athymic Swiss nu/nu mouse (human tumor); details: Mus musculus, ip, 24 h, read-out: T/C
# Procedure: LOX, a human melanoma cell line, grown subcutaneously in nude mice was excised, trypsinized to yield a single cell suspension using a metal grid with a […] mesh. […] Five million viable trypan blue negative cells made up in 0.1 ml of Dulbecco modified Eagle medium (DMFE) were injected into the peritoneal cavity of a male athymic Swiss nu/nu mouse. The control group and each treatment group consisted of 5 to 10 mice. Treatment was commenced the following day by intraperitoneal injection.
# Ten control mice received 0.25 ml of 2% dextrose on these days the treated groups were injected with the compounds of this invention. […] T/C is the ratio, expressed as a percentage of the mean survival age of the treated group to the mean survival age of the untreated control group.
# [1] = test system: human colon carcinoma CX-1; assay: anti-human colon carcinoma CX-1 activity using nude mice; type: in vivo, Swiss nu/nu mice (human tumor); details: Mus musculus, ip, 24 h, read-out: Tumor Inhibition
# Text: Human colon carcinoma cell line CX-1 has been chosen by the National Cancer Institute as a mode for cancer drug screening (NCI Protocol 3C2H2). It was established in culture from the surgical explant of the primary colon adenocarcinoma of a person with no previous chemotherapy. The cultured CX-1 cells, upon subcutaneous injection, can grow readily in nude mice as a moderately- to well-differentiated human colon carcinoma. CEA is expressed as expected for differentiated colon carcinoma cells. Abundant keratin, consistent with epithelial origin, is present. Increased uptake and prolonged retention of delocalized lipophilic cations are observed.
# Swiss nu/nu mice obtained from Taconic Farm were housed in a pathogen-free environment. Tumors subcutaneously passaged in nude mice were excised under sterile conditions and converted to a single cell suspension using a metal grid with a 0.4 mm mesh. Red blood cells were lysed by incubation with 0.17M ammonium chloride at 4° C. for 20 minutes. Cells were scored for viability with trypan blue. Viable CX-1 cells (2.5 million) made up in 0.1 ml of […]. The mice were randomly allocated into a control group (five mice) and a treatment group (five mice per group). The drug treatment was commenced the next day. Doses and schedules were developed empirically and were based mainly on information on LD50 and LD1O obtained from preliminary toxicity studies. The control group received an equivalent volume of hydroxypropyl-β-cyclodextrin-5% glucose solution.
# The pharmaceutical compositions tested comprised solutions in 5% glucose subjected to sonication at concentrations of 1 mg/ml. Those compounds which were not completely dissolved by this procedure were dissolved hydroxypropyl-β-cyclodextrin using the following method. Hydroxypropyl-β-cyclodextrin (45 g) was mixed with 100 ml of sterilized, double distilled water and stirred for four hours. Each of the compounds to be tested (20 mg) was mixed with 10 ml of hydroxypropyl-β-cyclodextrin solution and sonicated for 60 minutes in the dark. This solution was then diluted in 5% glucose to yield a final compound concentration of 0.5 mg/ml, and further sonicated for 60 minutes in the dark to assure that the compound was completely dissolved.
# When the growth of tumors in the control group reached the exponential phase and the size of the tumor was palpable (usually 20 to 30 days after tumor implantation), the experiments were terminated. Tumors in each mouse were excised and weighed using an analytical balance. Total tumor weight in each group from five mice was calculated. Per cent tumor inhibition between the treated group and the control group was then calculated for each group.
# MCF-7 cells = assay: colony assay of Example 1 with human breast carcinoma MCF-7 cell line; type: cell-based; details: for Selectivity: CV-1/MCF-7
# Text: as §1
# EJ cells = assay: colony assay of Example 1 with human bladder carcinoma EJ cell line; type: cell-based; details: for Selectivity: CV-1/EJ; for IC50: EJ;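 for all read-outs here: colony formation assay with 24 h compound exposure at 37 °C, then 7–10 days drug-free regrowth, colonies stained with crystal violet, controls given medium alone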
# LOX cells = assay: colony assay of Example 1 with human melanoma LOX cell line; type: cell-based; details: for Selectivity: CV-1/LOX; for IC50: LOX;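 for all read-outs here: colony formation assay with 24 h exposure at 37 °C, then 7 to 10 days of regrowth, crystal violet staining of colonies, control wells given medium alone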
# CRL 1420 cells = assay: colony assay of Example 1 with human pancreatic carcinoma CRL 1420 cell line; type: cell-based; details: for Selectivity: CV-1/CRL-1420;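 for all read-outs here: colony formation assay, cells exposed for 24 h then regrown 7 to 10 days without compound, colonies stained with crystal violet, control given medium alone, normal reference CV-1 monkey kidney epithelial cells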
# [2] = human colon carcinoma, 24 hours treatment, colony count after 7 to 10 days
# [3] = Table III, normal monkey kidney epithelial cells, colony count after 7 to 10 days
# [4] = Homo sapiens, MCF7, 24 h, Table VI, human breast carcinoma, 24 hours treatment
# [5] = Homo sapiens, 24 h, Table IV, human bladder carcinoma, 24 hours treatment
# [6] = Homo sapiens, 24 h, Table V, human melanoma, 24 hours treatment
# [7] = Table VII, human pancreatic carcinoma, 24 hours treatment
# [8] = Table IV, human bladder carcinoma, 24 hours treatment
# [9] = Table V, human melanoma, 24 hours treatment
SMILES,IC50 (MCF-7 cells; [4]),IC50 (EJ cells; [5]),IC50 (LOX cells; [6]),CRL-1420(IC50) (CRL 1420 cells; [7]),Selectivity (ratio of IC50 for CV-1 and IC50 for CX-1) (CX-1 cells),IC50 (CX-1 cells; [2]),CV-1 (IC50) (CV-1 cells; [3]),Selectivity (MCF-7 cells),"IC50 (CV-1 cells; CV-1, 24 h, Table IV)","IC50 (CV-1 cells; CV-1, 24 h, Table V)","IC50 (CV-1 cells; CV-1, 24 h, Table VI)","IC50 (CV-1 cells; CV-1, 24 h, Table VII)",Selectivity (EJ cells),Selectivity (LOX cells),Selectivity (CRL 1420 cells),other results
CN1C(=c2sc(=Cc3oc4ccccc4[n+]3C)n(C)c2=O)Sc2ccccc21 [Compound 57],–,–,–,–,120,0.05 µg/mL,6 µg/mL,–,–,–,–,–,–,–,–,"response vs control in vivo at 5 mg/kg (human melanoma LOX; 5 mg/kg i.p. on day 1, 2, 3, 6, 7, 8, 9, 10, 14): 163%; inhibition in vivo at 10 mg/kg ([1]; 10 mg/kg i.p. on day 1, 2, 5, 6, 7, 8): 66.3%"
CCn1c(=Cc2oc3ccc(-c4ccccc4)cc3[n+]2CC)sc(=C2Sc3ccccc3N2C)c1=O [Compound 203],–,–,–,–,–,–,–,–,–,–,–,–,–,–,–,"response vs control in vivo at 5 mg/kg (human melanoma LOX; 5 mg/kg i.p. on day 1, 5, 9, 13): 139%; inhibition in vivo at 5 mg/kg ([1]; 5 mg/kg i.p. on day 1, 5, 8, 11): 71.9%"

# Continued, in another order:
IC50 (MCF-7 cells; [4]),IC50 (EJ cells; [5]),IC50 (LOX cells; [6]),CRL-1420(IC50) (CRL 1420 cells; [7]),SMILES,Selectivity (ratio of IC50 for CV-1 and IC50 for CX-1) (CX-1 cells),IC50 (CX-1 cells; [2]),CV-1 (IC50) (CV-1 cells; [3]),Selectivity (MCF-7 cells),"IC50 (CV-1 cells; CV-1, 24 h, Table IV)","IC50 (CV-1 cells; CV-1, 24 h, Table V)","IC50 (CV-1 cells; CV-1, 24 h, Table VI)","IC50 (CV-1 cells; CV-1, 24 h, Table VII)",Selectivity (EJ cells),Selectivity (LOX cells),Selectivity (CRL 1420 cells),other results
0.064 µg/mL,0.015 µg/mL,0.064 µg/mL,0.015 µg/mL,CCn1c(=Cc2sc3c4ccccc4ccc3[n+]2CC)sc(=C2Sc3ccc4ccccc4c3N2C)c1=O [Compound 82],400,0.05 µg/mL,–,312,20 µg/mL,20 µg/mL,20 µg/mL,20 µg/mL,1333,312,1333,"IC50 (CV-1 cells; CV-1, Table III, normal monkey kidney epithelial cells, colony count after 7 to 10 days): 20 µg/mL; response vs control in vivo at 5 mg/kg (human melanoma LOX; 5 mg/kg i.p. on day 1, 4, 8, 11, 15): 142%"
0.04 µg/mL,0.05 µg/mL,0.02 µg/mL,–,CCn1c(=Cc2cc[n+](CC)c3ccccc23)sc(=C2C=Cc3ccccc3N2C)c1=O [Compound 232],–,–,–,150,6 µg/mL,6 µg/mL,6 µg/mL,6 µg/mL,120,300,200,"IC50 (CRL 1420 cells; Homo sapiens, 24 h, Table VII, human pancreatic carcinoma, 24 hours treatment): 0.03 µg/mL; response vs control in vivo at 3 mg/kg (human melanoma LOX; 3 mg/kg i.p. on day 1, 4, 8, 10, 12): > 270%"
–,–,–,0.04 µg/mL,CCn1c(=CC2=[N+](CC)CCS2)sc(=C2Sc3ccccc3N2C)c1=O [Compound 335],200,–,26 µg/mL,100,–,–,–,–,200,667,500,"MCF-7(IC50) (MCF-7 cells; Table VI, human breast carcinoma, 24 hours treatment): 0.2 µg/mL; CX-1 (IC50) (CX-1 cells; Table III, human colon carcinoma, 24 hours treatment, colony count after 7 to 10 days): 0.1 µg/mL; CV-1 (IC50) (CV-1 cells; Table IV): 20 µg/mL; CV-1 (IC50) (CV-1 cells; Table V): 20 µg/mL; CV-1 (IC50) (CV-1 cells; Table VI): 20 µg/mL; CV-1 (IC50) (CV-1 cells; Table VII): 20 µg/mL; EJ (IC50) (EJ cells; [8]): 0.1 µg/mL; LOX(IC50) (LOX cells; [9]): 0.03 µg/mL; response vs control in vivo at 5 mg/kg (human melanoma LOX; 5 mg/kg i.p. on day 1, 5, 8, 11, 14): 189%"
–,–,–,0.03 µg/mL,CCn1c(=Cc2sc3ccccc3[n+]2CC)sc(=C2Sc3ccccc3N2C)c1=O [Compound 336],–,–,–,100,–,–,–,–,667,4000,667,"IC50 (MCF-7 cells; MCF7, Table VI, human breast carcinoma, 24 hours treatment): 0.2 µg/mL; IC50 (CV-1 cells; CV-1, Table IV): 20 µg/mL; IC50 (CV-1 cells; CV-1, Table V): 20 µg/mL; IC50 (EJ cells; [8]): 0.03 µg/mL; IC50 (LOX cells; [9]): 0.005 µg/mL; response vs control in vivo at 5 mg/kg (human melanoma LOX; 5 mg/kg i.p. on day 1, 3, 4, 6, 8, 10, 13): 188%"
